# Assay results from PMC4261083, “An atypical residue in the pore of Varroa destructor GABA-activated RDL receptors affects picrotoxin block and thymol modulation” (Insect Biochemistry and Molecular Biology, 2014).
# Changes are numbered by the printed parent chain.
# Key:
# Experiment in all cases: Thymol modulation of GABA concentration-response curves, two electrode voltage clamp in Xenopus oocytes
# Assay type in all cases: cell-based
# [1] = molecular target: T1, N-7′H mutant Drosophila RDL receptor (Drosophila melanogaster, UniProt P25123, N292H); conditions: N-7′H RDL
# T1 construct: expressed in transfected cells; host or cells: Xenopus laevis oocytes injected with cRNA
# T1 sequence (P25123 45-606 N292H): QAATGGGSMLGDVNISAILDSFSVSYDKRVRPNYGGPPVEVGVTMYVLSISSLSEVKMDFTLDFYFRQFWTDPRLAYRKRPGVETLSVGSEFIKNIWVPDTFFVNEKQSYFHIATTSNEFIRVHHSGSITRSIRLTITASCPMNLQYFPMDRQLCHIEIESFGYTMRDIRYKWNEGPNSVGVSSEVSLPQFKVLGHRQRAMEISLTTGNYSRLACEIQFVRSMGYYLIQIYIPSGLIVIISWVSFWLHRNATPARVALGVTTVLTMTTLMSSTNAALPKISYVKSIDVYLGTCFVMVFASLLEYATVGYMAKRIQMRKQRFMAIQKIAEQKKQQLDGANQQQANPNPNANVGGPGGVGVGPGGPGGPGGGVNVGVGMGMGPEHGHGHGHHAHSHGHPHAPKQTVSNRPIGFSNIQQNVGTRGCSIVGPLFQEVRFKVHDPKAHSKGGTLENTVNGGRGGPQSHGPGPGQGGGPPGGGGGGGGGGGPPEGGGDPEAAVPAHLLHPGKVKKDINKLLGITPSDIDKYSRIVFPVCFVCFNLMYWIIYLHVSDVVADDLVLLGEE
# Experimental: (§1) X. laevis oocyte-positive females were purchased from NASCO (Fort Atkinson, Wisconsin, USA) and maintained according to standard methods. Harvested stage V-VI Xenopus oocytes were washed in four changes of ND96 (96 mM NaCl, 2 mM KCl, 1 mM MgCl2, 1 mM CaCl2, 5 mM HEPES, pH 7.5), de-folliculated in 1.5 mg ml^−1 collagenase Type 1A for approximately 2 h, washed again in four changes of ND96 and stored in ND96 containing 2.5 mM sodium pyruvate, 0.7 mM theophylline and […].
# (§2) Site directed mutagenesis was performed with the QuikChange mutagenesis kit (Agilent, La Jolla, CA). cRNA was transcribed in vitro from linearised pGEMHE cDNA template using the mMessage mMachine T7 Transcription kit (Ambion, Austin, Texas, USA). Stage V and VI oocytes were injected with 5 ng cRNA, incubated at 18 °C, and currents recorded 18–24 h post-injection.
# (§3) Currents were recorded at 5 kHz and filtered at a frequency of 1 kHz. Micro-electrodes were fabricated from borosilicate glass (GC120TF-10, Harvard Apparatus, Edenbridge, Kent, UK) using a one stage horizontal pull (P-87, Sutter Instrument Company, California, USA) and filled with 3 M KCl. […] Oocytes were perfused with ND96 at a constant rate of 12 ml min^−1. Drug application was via a simple gravity fed system calibrated to run at the same rate.
# (§4) Analysis and curve fitting was performed using Prism v5 (GraphPad Software, San Diego, California, USA). Concentration-response data for each oocyte was normalised to the maximum current for that oocyte. The mean and S.E.M. for a series of oocytes were fitted to the four parameter logistic equation in Prism.
# [2] = molecular target: T2, A20′S mutant Drosophila RDL receptor (Drosophila melanogaster, UniProt P25123, A319S)
# T2 construct: expressed in transfected cells; host or cells: Xenopus laevis oocytes injected with cRNA
# T2 sequence (P25123 45-606 A319S): T1 sequence (P25123 45-606 N292H) with H248N, A275S
# Experimental: as §1, §2, §3, §4
# [3] = molecular target: T3, T6′M mutant Drosophila RDL receptor (Drosophila melanogaster, UniProt P25123, T305M)
# T3 construct: expressed in transfected cells; host or cells: Xenopus laevis oocytes injected with cRNA
# T3 sequence (P25123 45-606 T305M): T1 sequence (P25123 45-606 N292H) with H248N, T261M
# Experimental: as §1, §2, §3, §4
# [4] = GABA EC50 control vs +100 μM thymol
# [5] = GABA concentration-response in presence of 100 μM thymol
structure (smiles),measurement,setting,value
"Cc1ccc(C(C)C)c(O)c1 [Thymol, thymol]",Effect of thymol on GABA-induced responses,"[1]; 100 μM thymol, 1 μM GABA",enhance
same,Fold change in EC50,[1]; [4],2.7
same,% Imax,[1]; [5],82 ± 4%
same,Effect of thymol on GABA-induced responses,"[2]; 100 μM thymol, 1 μM GABA",enhance
same,Fold change in EC50,[2]; [4],5.0
same,% Imax,[2]; [5],81 ± 6%
same,Effect of thymol on GABA-induced responses,"[3]; 100 μM thymol, at some GABA concentrations",inhibition
same,Fold change in EC50,[3]; [4],3.4
same,% Imax,[3]; [5],35 ± 9%
